Measurements as given in publication PMC11129975, “A first-in-human phase I study of TAS-117, an allosteric AKT inhibitor, in patients with advanced solid tumors” (Cancer Chemotherapy and Pharmacology, 2024).
Marks after values point to notes of the source that are not given here.

Columns and labels:
AKT = assay: Ratio of pPRAS40/total PRAS40 in platelet-rich plasma (electrochemiluminescence); assay type: in vivo, human; conditions: at any time point; DEP, RMP and SAP; dose levels 2 to 5 (8 to 32 mg/body/day)
Method: Blood samples for pharmacokinetic analysis were collected immediately prior to dosing (0 h) and at 0.5, 1, 2, 3, 4, 6, 8, 12, and 24 h post-dose on Day 1 and Day 21 of Cycle 1 for patients in the DEP (QD dosing). For patients who received intermittent dosing regimens, blood was collected immediately prior to dosing (0 h) and at 1, 2, 3, 4, 6, 8, 10, and 24 h post-dose on Cycle 1 Day 1; immediately prior to dosing (0 h) on Cycle 1 Days 3, 4, and 8; and immediately prior to dosing (0 h) and at 1, 2, 3, 4, 6, 8, 10, 24, 48, and 96 h post-dose on Cycle 1 Day 18. […]
The pharmacodynamic activity of TAS-117 for AKT inhibition was evaluated by the change in the ratio of pPRAS40 (threonine 246) to total PRAS40 in platelet-rich plasma samples before and after TAS-117 administration. The phosphorylation status of PRAS40 in the blood was measured with an electrochemiluminescence detection assay using a Meso Scale Discovery instrument (Meso Scale Diagnostics, Rockville, MD, US). For efficacy, solid tumors were assessed using Response Evaluation Criteria in Solid Tumors (RECIST; version 1.1). Computed tomography scans were evaluated at baseline, every 6 weeks after initiating TAS-117 administration, and at the time of study discontinuation.

[1] = Plasma and urine pharmacokinetics of TAS-117 in patients; assay type: in vivo, human
Method: Blood samples for pharmacokinetic analysis were collected immediately prior to dosing (0 h) and at 0.5, 1, 2, 3, 4, 6, 8, 12, and 24 h post-dose on Day 1 and Day 21 of Cycle 1 for patients in the DEP (QD dosing). For patients who received intermittent dosing regimens, blood was collected immediately prior to dosing (0 h) and at 1, 2, 3, 4, 6, 8, 10, and 24 h post-dose on Cycle 1 Day 1; immediately prior to dosing (0 h) on Cycle 1 Days 3, 4, and 8; and immediately prior to dosing (0 h) and at 1, 2, 3, 4, 6, 8, 10, 24, 48, and 96 h post-dose on Cycle 1 Day 18. Urine samples for pharmacokinetic analysis were collected immediately prior to dosing (single sample collection) and from 0 to 6 h and from 6 to 12 h and 12 to 24 h post-dose on Day 1 of Cycle 1 for both QD and intermittent dosing. Blood samples for pharmacodynamic analysis were collected at pre-dose and 4, 8, and 24 h post-dose on Cycle 1 Day 1, and at pre-dose and 4 h post-dose on Cycle 1 Day 21 (QD dosing) or Cycle 1 Day 18 (intermittent dosing).
Descriptive data were used to summarize safety data and antitumor activity. Pharmacokinetic parameters were derived using non-compartmental analysis and summarized descriptively by dose level, study day, and study phase. […] The accumulation of TAS-117 was assessed by comparing pharmacokinetic parameters on Day 1 and Day 21 (QD) or Day 18 (intermittent dosing). Pharmacodynamic data were presented using summary statistics of the ratio of pPRAS40/total PRAS40 to baseline values (pre-dose) on Day 1 and Day 18 or 21, by dose level and treatment regimen. Pharmacogenomics data were summarized, and the relevance between biomarkers and efficacy was analyzed using Fisher’s Exact test.
P-values < 0.05 were considered significant. Missing data were not imputed, and analyses were performed using all available data. Plasma pharmacokinetic parameters were evaluated using Phoenix® WinNonlin® software (Pharsight Corporation as part of Certara, Princeton, NJ, US, Version 8.1 or 8.3). Statistical analyses were performed using SAS version 9.4 (SAS Institute; Cary, NC, US).

[2] = DEP, Cycle 1 Day 1, 8 mg QD, n = 1
[3] = DEP, Cycle 1 Day 1, 16 mg QD, n = 6
[4] = DEP, Cycle 1 Day 1, 24 mg QD, n = 3
[5] = DEP, Cycle 1 Day 1, 24 mg QD, n = 2
[6] = DEP, Cycle 1 Day 21, 8 mg QD, n = 1
[7] = DEP, Cycle 1 Day 21, 16 mg QD, n = 3
[8] = DEP, Cycle 1 Day 21, 16 mg QD, n = 2
[9] = DEP, Day 21 vs Day 1, 16 mg QD, n = 3
[10] = RMP, Cycle 1 Day 1, 24 mg intermittent dosing (4 days on/3 days off), n = 6
[11] = RMP, Cycle 1 Day 1, 24 mg intermittent dosing (4 days on/3 days off), n = 5
[12] = RMP, Cycle 1 Day 1, 32 mg intermittent dosing (4 days on/3 days off), n = 4
[13] = RMP, Cycle 1 Day 18, 24 mg intermittent dosing (4 days on/3 days off), n = 5
[14] = RMP, Cycle 1 Day 18, 32 mg intermittent dosing (4 days on/3 days off), n = 1
[15] = RMP, Day 18 vs Day 1, 24 mg intermittent dosing, n = 5
[16] = RMP, Day 18 vs Day 1, 32 mg intermittent dosing, n = 1

For `C[C@]1(O)C[C@@](N)(c2ccc(-c3nc4n(c3-c3ccccc3)COc3ccncc3-4)cc2)C1` [TAS-117], the “Reduction in the level of pPRAS40” value (AKT) was greater than 50%, the “Dose proportionality of Cmax, AUClast and AUC0–24” value ([1]; 8 to 32 mg dose range) was “dose proportional” and the “AUC0–24” value [1, 2] was 164 ng·h/mL. It also gave an AUClast [1, 2] of 165 ng·h/mL, a CLr [1, 2] of 4.11 L/h and a Cmax [1, 2] of 8.82 ng/mL. It also gave a t1/2 [1, 2] of 21.96 h, a tmax [1, 2] of 1.93 h and a Fe ([1]; DEP, Cycle 1 Day 1, 8 mg QD, n = 1, urinary excretion rate as percentage of dose) of 8.45%. The “AUC0–24, Mean (SD)” value [1, 3] was 315 (73) ng·hr/mL, the “AUC0–24, gMean” value [1, 3] was 308 ng·h/mL and the “AUClast, Mean (SD)” value [1, 3] was 316 (73) ng·hr/mL. The “AUClast, gMean” value [1, 3] was 308 ng·h/mL, the “CLr, Mean (SD)” value [1, 3] was 5.20 (2.19) L/h and the “CLr, gMean” value [1, 3] was 4.78 L/h. The “Cmax, Mean (SD)” value [1, 3] was 25.1 (7.66) ng/mL, the “Cmax, gMean” value [1, 3] was 24.1 ng/mL and the “Fe, Mean (SD)” value [1, 3] was 10.43 (4.94) %. The “Fe, gMean” value [1, 3] was 9.20%, the “t1/2, Mean (SD)” value [1, 3] was 26.98 (6.06) h and the “t1/2, gMean” value [1, 3] was 26.40 h. The “tmax, median (min, max)” value [1, 3] was 2.98 (1.88, 3.89)^c h, the “AUC0–24, Mean (SD)” value [1, 4] was 438 (194) ng·hr/mL and the “AUC0–24, gMean” value [1, 4] was 407 ng·h/mL. The “AUClast, Mean (SD)” value [1, 4] was 438 (193) ng·hr/mL, the “AUClast, gMean” value [1, 4] was 408 ng·h/mL and the “CLr, Mean (SD)” value [1, 4] was 6.39 (2.72) L/h. The “CLr, gMean” value [1, 4] was 6.04 L/h, the “Cmax, Mean (SD)” value [1, 4] was 31.0 (15.7) ng/mL and the “Cmax, gMean” value [1, 4] was 28.6 ng/mL. For the same molecule, the “Fe, Mean (SD)” value [1, 4] was 10.48 (2.73) %, the “Fe, gMean” value [1, 4] was 10.25% and the “tmax, median (min, max)” value [1, 4] was 3.98 (3.92, 6.00)^c h. For the same molecule, the “t1/2, Mean (SD)” value [1, 5] was 23.06 (NC)^d h, the “t1/2, gMean” value [1, 5] was 22.61^d h and the AUClast [1, 6] was 604 ng·h/mL. For the same molecule, the Cmax [1, 6] was 33.1 ng/mL, the tmax [1, 6] was 7.85 h and the “AUC0–24, Mean (SD)” value [1, 7] was 865 (216) ng·hr/mL. For the same molecule, the “AUC0–24, gMean” value [1, 7] was 846 ng·h/mL, the “AUClast, Mean (SD)” value [1, 7] was 864 (220) ng·hr/mL and the “AUClast, gMean” value [1, 7] was 844 ng·h/mL. For the same molecule, the “Cmax, Mean (SD)” value [1, 7] was 61.4 (22.2) ng/mL, the “Cmax, gMean” value [1, 7] was 58.3 ng/mL and the “tmax, median (min, max)” value [1, 7] was 1.93 (1.87, 2.02)^c h. The “t1/2, Mean (SD)” value [1, 8] was 41.65 (NC)^d h, the “t1/2, gMean” value [1, 8] was 41.23^d h and the “Observed accumulation ratio of Cmax” value ([1]; DEP, Day 21 vs Day 1, 8 mg QD, n = 1) was 3.75. For the same molecule, the “Observed accumulation ratio of AUC0–24, Mean (SD)” value [1, 9] was 2.84 (0.04), the “Observed accumulation ratio of AUC0–24, gMean” value [1, 9] was 2.83 and the “Observed accumulation ratio of Cmax, Mean (SD)” value [1, 9] was 2.71 (0.48). For the same molecule, the “Observed accumulation ratio of Cmax, gMean” value [1, 9] was 2.69, the “AUC0–24, Mean (SD)” value [1, 10] was 543 (108) ng·hr/mL and the “AUC0–24, gMean” value [1, 10] was 534 ng·h/mL. For the same molecule, the “AUClast, Mean (SD)” value [1, 10] was 542 (107) ng·hr/mL, the “AUClast, gMean” value [1, 10] was 533 ng·h/mL and the “CLr, Mean (SD)” value [1, 10] was 4.55 (1.43) L/h. The “CLr, gMean” value [1, 10] was 4.34 L/h, the “Cmax, Mean (SD)” value [1, 10] was 42.1 (11.1) ng/mL and the “Cmax, gMean” value [1, 10] was 40.9 ng/mL. The “Fe, Mean (SD)” value [1, 10] was 10.02 (2.85) %, the “Fe, gMean” value [1, 10] was 9.65% and the “tmax, median (min, max)” value [1, 10] was 3.28 (0.95, 4.15)^c h. For the same molecule, the “t1/2, Mean (SD)” value [1, 11] was 31.92 (10.77)^e h, the “t1/2, gMean” value [1, 11] was 30.44^e h and the “AUC0–24, Mean (SD)” value [1, 12] was 770 (155) ng·hr/mL. The “AUC0–24, gMean” value [1, 12] was 758 ng·h/mL, the “AUClast, Mean (SD)” value [1, 12] was 774 (162) ng·hr/mL and the “AUClast, gMean” value [1, 12] was 761 ng·h/mL. The “CLr, Mean (SD)” value [1, 12] was 4.12 (1.82) L/h, the “CLr, gMean” value [1, 12] was 3.80 L/h and the “Cmax, Mean (SD)” value [1, 12] was 60 (18.4) ng/mL. For the same molecule, the “Cmax, gMean” value [1, 12] was 58.0 ng/mL, the “Fe, Mean (SD)” value [1, 12] was 9.32 (2.71) % and the “Fe, gMean” value [1, 12] was 9.01%. The “t1/2, Mean (SD)” value [1, 12] was 24.02 (3.80) h, the “t1/2, gMean” value [1, 12] was 23.81 h and the “tmax, median (min, max)” value [1, 12] was 2.43 (1.95, 4.03)^c h. The “AUC0–24, Mean (SD)” value [1, 13] was 1498 (500) ng·hr/mL, the “AUC0–24, gMean” value [1, 13] was 1433 ng·h/mL and the “AUClast, Mean (SD)” value [1, 13] was 3542 (1023) ng·hr/mL. For the same molecule, the “AUClast, gMean” value [1, 13] was 3420 ng·h/mL, the “Cmax, Mean (SD)” value [1, 13] was 89.9 (37.4) ng/mL and the “Cmax, gMean” value [1, 13] was 83.8 ng/mL. For the same molecule, the “t1/2, Mean (SD)” value [1, 13] was 49.31 (7.73) h, the “t1/2, gMean” value [1, 13] was 48.83 h and the “tmax, median (min, max)” value [1, 13] was 2.00 (0.98, 5.92)^c h. For the same molecule, the “AUC0–24” value [1, 14] was 2105 ng·h/mL, the AUClast [1, 14] was 5558 ng·h/mL and the Cmax [1, 14] was 160 ng/mL. For the same molecule, the t1/2 [1, 14] was 49.63 h, the tmax [1, 14] was 1.00 h and the “Observed accumulation ratio of AUC0–24, Mean (SD)” value [1, 15] was 2.70 (0.37). The “Observed accumulation ratio of AUC0–24, gMean” value [1, 15] was 2.68, the “Observed accumulation ratio of Cmax, Mean (SD)” value [1, 15] was 2.06 (0.73) and the “Observed accumulation ratio of Cmax, gMean” value [1, 15] was 1.95. The “Observed accumulation ratio of AUC0–24” value [1, 16] was 2.69, the “Observed accumulation ratio of Cmax” value [1, 16] was 2.50 and the “Steady state reached by” value ([1]; indicated by t1/2 data) was no more than 8 days.
